According to patent publication US11040052B2, “Methods and pharmaceutical compositions for modulating autophagy in a subject in need thereof” (INSERM (INSTITUT NATIONAL DE LA SANTE ET DE LA RECHERCHE …, priority 2013, dated 2021):
“Also recorded” adds a separate entry of the source.

Tests used:
[1] = tested on: AcCoA levels; test: Targeted analysis of AcCoA levels in cultured cells (HPLC-MS); format: cell-based, human; details: for cytosolic AcCoA levels: cytosolic fraction; for AcCoA levels in starved cells: nutrient-depleted (starved) cells in vitro; for AcCoA levels: cells kept in rich medium
Method: Cells were trypsinized, pelleted at 1000 rpm for 4 min, washed with PBS and pelleted again at 1000 rpm for 4 min. Cells were then resuspended in 5 ml of ice-cold hyposmotic buffer and keep on ice for 5 min. Cells were broken to release nuclei using a pre-chilled Dounce homogenizer (20 strokes with a tight pestle) and then were then centrifuged at 228 g.
For in vitro experiments, cell pellets were resuspended in 300 μL of water with HEPES and EDTA (pH 7.4) at 1 mM containing internal standard acetylcoenzyme A (2-C13) at 1 mg/L, vortexed and heated at 100° C. for 1 min. Samples were incubated in liquid nitrogen for 1 min and thawed at room temperature two times. They were let for 1 h at −20° C. and centrifuged at 4° C. during 15 min at 13,000 g. Supernatants were transferred in HPLC vials and injected in HPLC/MS or kept at −80° C. until injection. For in vivo experiments, frozen tissues were placed in ice-cold homogenization tubes containing ceramic beads. Five μL of ice-cold methanol/water (80/20; v/v) were added for 1 mg of tissue. Tissues were homogenized two times for 20 s at 5,500 rpm using Precellys 24 tissue homogenator (Bertin Technologies, Montigny-le-Bretonneux, France). Samples were placed 10 min on ice. Next they were centrifuged at 4° C. during 15 min at 13,000 g. Supernatants were transferred in HPLC vials and injected in HPLC-MS system or kept at −80° C. until injection.
Targeted analyses were performed on Rapid Resolution Liquid Chromatography (RRLC) 1200SL system (Agilent Technologies, Waldbronn, Germany) coupled to a Triple Quadruple QQQ 6410 mass spectrometer (Agilent Technologies). RRLC analysis was done on 150×2.1 mm, 3.5 μm Eclipse Plus SB-Aq column with a pre-column 30 mm×2.1 mm 3.5 μm Eclipse plus (Agilent Technologies) with water containing 10 mmol/L of ammonium acetate and 0.01% of acetic acid in channel A and acetonitrile in channel B in gradient mode at a flow rate of 0.3 mL·min^−1: t=0 min 2% B; t=9 min 95% B; t=11 min 95% B; re-equilibration time of 3 min. Mass spectrometer analysis was done in positive electrospray ionization mode at +4 kV on the QQQ system operating in MRM mode. MRM transitions were optimized with standard of AcCoA and AcCoA A 2-C^13 with direct infusion. Two transitions were recorded for each compound; • AcCoA 810>303 CE (collision energy) 28V; fragmentor 180V • 810>428 CE 20V • AcCoA 2-C13 812>305 CE 28V; fragmentor 180V • 812>428 CE 24V […]

[2] = tested on: U2OS cells stably expressing GFP-LC3; test: Autophagy in cultured cells: GFP-LC3 puncta formation and LC3 lipidation with or without bafilomycin A1; format: cell-based, human; details: for starvation-induced autophagy (GFP-LC3 puncta, LC3 lipidation, autophagic flux): nutrient-depleted (starved) cells in vitro; for autophagic flux (GFP-LC3 puncta formation, LC3 lipidation): cells kept in rich medium, presence and absence of BafA1; for abolition of the effects of AcCoA-replenishing agents on starvation-induced protein deacetylation and autophagy: starved cells plus DCA, DMKG or KIC
Method: U2OS, HeLa or H4 cells stably expressing GFP-LC3 were seeded in 96-well imaging plates (BD Falcon, Sparks, USA) 24 h before stimulation. Cells were treated with the indicated agents for 4 h. […] Images were analyzed for the presence of GFP-LC3 puncta in the cytoplasm by means of the BD Attovision software (BD Imaging Systems). Cell surfaces were segmented and divided into cytoplasmic and nuclear regions according to manufacturer standard proceedings. RB 2×2 and Marr-Hildreth algorithms were used to recognize cytoplasmic GFP-LC3 positive dots. Statistical analyses were implemented on the R software (http://www.r-project.org/). For quantitative analyses of protein acetylation, cell surfaces were segmented into cytoplasm and nuclei regions, and staining intensity of each individual cell was measured for statistical analysis.
Membranes were then sliced in different parts according to the molecular weight of the protein of interest to allow simultaneous detection of different antigens within the same experiment. Unspecific binding sites were saturated by incubating membranes for 1 h in 0.05% Tween 20 (v:v in TBS) supplemented with 5% non-fat powdered milk (w:v in TBS), followed by the overnight incubation with primary antibodies specific for acetylated-lysine, LC3, phospho-AMPK (Thr172), AMPK, phospho-ribosomal protein S6 kinase (Thr421/Ser424), ribosomal protein S6 kinase, or STQM/p62 (Santa Cruz Biotechnology). Development was performed with appropriate horseradish peroxidase (HRP)-labeled secondary antibodies (Southern Biotech, Birmingham, USA) plus the SuperSignal West Pico chemoluminescent substrate (Thermo Scientific-Pierce). An anti-glyceraldehyde-3-phosphate dehydrogenase antibody (Chemicon International, Temecula, USA) was used to control equal loading of lanes.
For immunoblotting, protein extracts obtained by cellular lysis via RIPA buffer were run on 4-12% Bis-Tris acrylamide (Invitrogen) and electrotransferred to […] PVDF membranes (Biorad, USA). Unspecific binding sites were saturated by incubating membranes for 1 h in 0.05% Tween 20 (v:v in TBS) supplemented with 5% non-fat powdered milk (w:v in TBS), followed by an overnight incubation with primary antibodies specific for, LC3, phospho-AMPK (Thr172), AMPK, phosphor-ACC (Ser79), ACC, phospho-ribosomal protein S6 kinase (Thr421/Ser424), ribosomal protein S6 kinase, or SQSTM/p62 (Abnova). Membranes were opportunely cut in order to allow simultaneous detection of different molecular weight proteins. Development was performed with horseradish peroxidase (HRP)-labeled secondary antibodies (Southern Biotech, Birmingham, USA) plus the SuperSignal West Pico chemo luminescent substrate (Thermo Scientific-Pierce). An anti-glyceraldehyde-3-phosphate dehydrogenase antibody (Abcam) and anti-Actin antibody (Abcam) were used to ensure equal loading of lanes. Quantification was performed by densitometry by means of Image J software.
U2OS and H4 cells stably expressing GFP-LC3 were seeded in 96-well or 384-well imaging plates (BD Falcon, Sparks, USA). 24 h before stimulation, ells were treated with the indicated agents for 6 hours in absence of lysososomal ATPase inhibitors and for 3 hours in presence of Bafilomycin A1. […] Images were analyzed for the detection of GFP-LC3 puncta in the cytoplasm by means of the BD Attovision software (BD Imaging Systems. Cellular regions of interest, cytoplasm and nucleus, were defined and segmented according to standard proceedings. RB 2×2 and Marr-Hildreth algorithms were employed to allow the detection of GFP LC3 puncta. Statistical analyses were conducted using the R and Prism softwares (http://www.r-project.org/). For quantitative analyses of protein acetylation, cell surfaces were segmented intocytoplasmic and nucleic regions, and staining intensity of each individual cell was measured for statistical analysis.

Row | SMILES | cytosolic AcCoA levels [1] | AcCoA levels in starved cells [1] | starvation-induced autophagy (GFP-LC3 puncta, LC3 lipidation, autophagic flux) [2] | autophagic flux (GFP-LC3 puncta formation, LC3 lipidation) [2] | abolition of the effects of AcCoA-replenishing agents on starvation-induced protein deacetylation and autophagy [2] | AcCoA levels [1]
1 | COC(=O)CCC(=O)C(=O)OC [DMKG, dimethyl-α-ketoglutarate] | also raised the cytosolic concentration of AcCoA | increased cellular AcCoA levels; also recorded: maintained high AcCoA | abolished starvation-induced autophagy; also recorded: low autophagy | – | – | –
2 | CC(C)CC(=O)C(=O)O [KIC, ketoisocaproic acid] | also raised the cytosolic concentration of AcCoA | increase in AcCoA levels; also recorded: sufficient to avoid AcCoA depletion | inhibition of starvation induced autophagy; also recorded: inhibited the starvation-induced increase in autophagic flux; also recorded: more efficient than leucine in suppressing autophagy | – | – | –
3 | CC1=NN(c2ccc(C(=O)O)cc2)C(=O)/C1=C\c1ccc(-c2cc(C)c(C)cc2[N+](=O)[O-])o1 [c646] | – | – | – | induced autophagy both in vitro, in cultured cells, and in vivo, in mice | precluded the inhibitory effect of AcCoA-replenishing agents on starvation-induced autophagy | –
4 | CC(C)C[C@H](N)C(=O)O [leucine] | – | sufficient to maintain high AcCoA levels | suppression of autophagy | – | – | –
5 | O=C(O)CC(O)(C(=O)O)C(O)C(=O)O (stereo not drawn) [HC, hydroxycitrate] | reduced cytoplasmic AcCoA levels | – | – | increased autophagic flux; also recorded: induce autophagic flux; also recorded: strongly stimulated autophagy both in vitro and in vivo; also recorded: stimulated autophagic flux in cultured cancer cells | cancelled the inhibitory effects; also recorded: abolished both the protein hyperacetylation and autophagy suppression | reduced both AcCoA levels
6 | O=C(O)c1cccc(C(=O)O)c1C(=O)O [BTC, 1,2,3-benzenetricarboxylate] | induced the triad of AcCoA depletion | – | – | increased autophagic flux; also recorded: induced the triad | cancelled the inhibitory effects; also recorded: abolished both the protein hyperacetylation and autophagy suppression | reduced both AcCoA levels
7 | N#CC(=Cc1cn(-c2ccccc2)c2ccccc12)C(=O)O [UK5099, 2-Cyano-3-(1-phenyl-1H-indol-3-yl)-2-propenoic acid] | also raised the cytosolic concentration of AcCoA | – | – | increased autophagic flux; also recorded: induction of GFP-LC3 puncta and lipidation of endogenous LC3-I to LC3-II; also recorded: induction of GFP-LC3 puncta, and lipidation of endogenous LC3-I to LC3-II | – | reduced both AcCoA levels; also recorded: depletion of intracellular AcCoA
8 | O=C(O)CCCCC1CCSS1 (stereo not drawn) [LA, lipoic acid] | also raised the cytosolic concentration of AcCoA | increased both cellular AcCoA levels; also recorded: maintain high AcCoA | abolished starvation-induced autophagy; also recorded: blunted starvation-induced mTORC1 inhibition, AMPK activation and autophagy flux | – | – | –
